Measurements published in publication PMC4501119, “Cholestenoic acid, an endogenous cholesterol metabolite, is a potent γ-secretase modulator” (Molecular Neurodegeneration, 2015).
Where two headings read alike, the source gives them in different places.

Legend:
[1] = test system: Aβ42 in CHO-2B7 cells (CHO cells stably overexpressing APP695); assay: Cell-based Aβ sandwich ELISA of conditioned media from CHO-2B7 cells treated 16 h; set-up: species or system Chinese hamster; details: for GSM activity: dose dependent studies; for GSM activity / fold less potent than CA 2a (Aβ42 EC50): CHO-2B7 cells
Method: Chinese hamster ovary (CHO) cells stably overexpressing APP695 (CHO-2B7 cells) were grown in Ham’s F-12 medium (Life Technologies) supplemented with 10 % fetal bovine serum and 100 units/ml of penicillin and 100 μg/ml streptomycin. Cells were grown at 37 °C in a humidified atmosphere containing 5 % CO2 in tissue culture plates (Costar). The cells were harvested at confluence and then utilized for biochemical analyses. Compounds were dissolved in dimethyl sulfoxide (DMSO) and screened in CHO-2B7 cells. The cells were incubated for 16 h in the presence of the compound diluted into OptiMEM-reduced serum medium (Life Technologies, Carlsbad, CA, USA) containing 1 % fetal bovine serum.
Monoclonal antibodies to Aβ were generated by the Mayo Clinic Immunology Core facilities (Jacksonville, FL, USA). Ab5 recognizes an epitope in the amino terminus of Aβ (Aβ1-16), recognizes both monomeric and aggregated Aβ, and is human specific. […] Ab 2.1.3 was raised against Aβ35-42 and is specific for Aβx-42. […] Total Aβ level was determined by capture with Ab5 and detected with horseradish peroxidase (HRP)-conjugated 4G8 (a monoclonal antibody against Aβ17-24; Covance, Waltham, MA, USA) with the other Aβ peptides detected with HRP-conjugated Ab5. For the cell-free assay and measuring mouse endogenous Aβ, HRP-conjugated 4G8 was used as the secondary detection antibody. Aβ standards (Bachem, King of Prussia, PA, USA) were prepared by dissolving in hexafluoroisopropanol (HFIP) at 1 mg/ml with sonication, dried under nitrogen, resuspended at 2 mg/ml HFIP, sonicated again and dried under nitrogen. The resulting Aβ was resuspended in 0.01 % ammonium hydroxide, portioned into aliquots in EC buffer, and frozen at −80 °C.

Aβ42 = details: cited from earlier work; for GSM activity: endogenous bile acids
γ-secretase = target: T1, γ-secretase (Homo sapiens, UniProt P49768); assay: In vitro γ-secretase (broken cell) assay, membranes of H4 neuroglioma cells overexpressing APP695wt, Aβ ELISA; format: biochemical; details: vs DMSO control, 2 h incubation
T1 construct: The membrane derived from the H4 neuroglioma cells overexpressing APP695wt were prepared by carbonate extraction; endogenous in cells; host or cells: H4 neuroglioma cells overexpressing APP695wt (membranes, carbonate extraction)
Method: Broken cell assays were performed with slight modifications from the previous studies. The membrane derived from the H4 neuroglioma cells overexpressing APP695wt were prepared by carbonate extraction and incubated at 37 °C for 2 h with CA at various concentrations. Aβ levels were quantified by sandwich ELISAs. For Aβ and AICD spectra, the recombinant C100Flag proteins were overexpressed and purified from Escherichia coli BL21 using a HiTrap Q-column (GE Life Science, Little Chalfont, U.K.). The membrane containing γ-secretase was isolated from the CHO S-1 cell line using sodium carbonate (100 mM, pH 11.0). For the in vitro γ-secretase assay, C100Flag recombinant protein at 25 μM was incubated with the membrane (100 μg/mL) in the presence of CA (20 μM) and DMSO in 150 mM sodium citrate buffer (pH 6.8) containing complete protease inhibitor (Roche, Indianapolis, IN) for 2 h at 37 °C.
(§1) Monoclonal antibodies to Aβ were generated by the Mayo Clinic Immunology Core facilities (Jacksonville, FL, USA). Ab5 recognizes an epitope in the amino terminus of Aβ (Aβ1-16), recognizes both monomeric and aggregated Aβ, and is human specific. […] Ab 2.1.3 was raised against Aβ35-42 and is specific for Aβx-42. […] For cell-based screens, Aβ was captured from conditioned medium with either Ab5, Ab38, Ab13.1.1, or Ab2.1.3 (coated at 10-50 μg/ml in EC buffer: 5 mM NaH2PO4-H2O, 20 mM Na2HPO4, 400 mM NaCl, 2.5 mM EDTA-full name, 151.5 μM BSA, 813 μM CHAPS, and 7.7 mM NaN3) on Immulon 4HBX Flat-Bottom Microfilter 96-well plates (Thermo Scientific, Waltham, MA, USA). Total Aβ level was determined by capture with Ab5 and detected with horseradish peroxidase (HRP)-conjugated 4G8 (a monoclonal antibody against Aβ17-24; Covance, Waltham, MA, USA) with the other Aβ peptides detected with HRP-conjugated Ab5. For the cell-free assay and measuring mouse endogenous Aβ, HRP-conjugated 4G8 was used as the secondary detection antibody. Aβ standards (Bachem, King of Prussia, PA, USA) were prepared by dissolving in hexafluoroisopropanol (HFIP) at 1 mg/ml with sonication, dried under nitrogen, resuspended at 2 mg/ml HFIP, sonicated again and dried under nitrogen. The resulting Aβ was resuspended in 0.01 % ammonium hydroxide, portioned into aliquots in EC buffer, and frozen at −80 °C. Following these steps, the Aβ is monomeric, as determined by size-exclusion chromatography.

[2] = test system: endogenous mouse Aβ (mAβ) in primary neuron-glia cultures; assay: Primary mixed neuron-glia culture, endogenous mouse Aβ ELISA; format: cell-based
Method: Primary mixed neuron-glia cultures were prepared from postnatal day 0 (P0) C3HBL/6 mouse brains (Harlan Labs). Cerebral cortices were dissected from P0 mouse brains and were dissociated in 2 mg/ml papain (Worthington) and 50 μg/mL DNAse I (Sigma) at 37 °C for 20 min. They were then washed three times in sterile Hank’s balanced salt solution (HBSS) to inactivate the papain and switched to 5 % fetal bovine serume (HyClone) in Neurobasal-A growth media (Gibco), which includes 0.5 mM L-glutamine (Gibco), 0.5 mM GlutaMax (Life Technologies), 0.01 % antibiotic-antimycotic (Gibco), and 0.02 % SM1 supplement (Stemcell). The tissue mixture was then triturated three times using a 5 mL pipette followed by a Pasteur pipette, and strained through a 70 μm cell strainer. The cell mixture was then centrifuged at 200xg for 3 min, and re-suspended in fresh Neurobasal-A media. They were then plated onto poly-D-lysine coated 96well plates at 100,000 cells/well. Cells were maintained in the Neurobasal-A growth media mentioned above without fetal bovine serum (FBS) at 37 °C in a humidified 5 % CO2 chamber.
as §1

[3] = test system: brain mAβ42, mAβ38 and total mAβ; assay: Brain Aβ levels after intraperitoneal injection in wild type mice; format: in vivo, mouse (C57BL/6 or CF-1); details: 30 mg/kg IP, brains harvested after 30 min, 1, 2 and 3 h
Method: 25(R)-CA powder was initially dissolved in DMSO (<4.5 % in the final mixture) and then combined with polyethylene glycol (15)-hydroxystearate (Solutol), ethanol, and water at a ratio of (15:10:75). One molar equivalent of sodium hydroxide was added to the mixture. We performed CA intraperitoneal (IP) injections to wild-type mice (C57BL/6 or CF-1). The mice were injected with 25(R)-CA on the right side of the abdomen. The injections have been performed with various time points (30 min, 1 h, 2 h, and 3 h) and with multiple doses (30 mg per kg (mg/kg), 60 mg/kg, 75 mg/kg and 100 mg/kg). The number of each cohort is 6–8. We used 30 mg/kg of CA for the time-course experiments, and for the dose–response experiments the end-point was set at 30 min. The brains and serum are harvested and frozen for brain Aβ extraction.
The mouse brains were harvested at the age of 3 months. The brains were weighed and recorded. The Diethylamine/Sodium Chloride (DEA/NaCl) extraction buffer (0.4 % DEA) was added to each sample and homogenized using a sonicator. The samples were transferred to a poly-carbonate centrifuge tube and spun down at 50,000xg for 30 min at 4 °C. The supernatant was loaded on the vacuum manifold with the appropriate number of HLB Oasis columns. The samples were loaded on the conditioned column, filtered, and eluted using prepared elution buffer (90 % Methanol, 2 % NH4OH). The eluates are concentrated using the Thermo-Savant SpeedVac concentrator for a minimum of 2 h at 55 °C with radiant heat. The concentrated samples are reconstituted in a blocking buffer (0.67 % Bovine serum albumin (BSA)) at the appropriate volume.
Monoclonal antibodies to Aβ were generated by the Mayo Clinic Immunology Core facilities (Jacksonville, FL, USA). […] Total Aβ level was determined by capture with Ab5 and detected with horseradish peroxidase (HRP)-conjugated 4G8 (a monoclonal antibody against Aβ17-24; Covance, Waltham, MA, USA) with the other Aβ peptides detected with HRP-conjugated Ab5. […] Following these steps, the Aβ is monomeric, as determined by size-exclusion chromatography.

[4] = lowering Aβ42, CHO-2B7 cells, 16 h, ELISA
[5] = Cricetulus griseus, CHO-2B7, 16 h, lowering Aβ42, CHO-2B7 cells, 16 h, ELISA
[6] = Cricetulus griseus, lowering Aβ42, CHO-2B7 cells, 16 h, ELISA
[7] = Cricetulus griseus, lowering Aβ42, CHO-2B7 cells, approximate value

CC(CCCC(C)C1CCC2C3CC=C4CC(F)CCC4(C)C3CCC12C)C(=O)O (stereo not drawn) [Cmpd 12]
EC50 [1, 4]: 8.91 µM

C[C@@H](CO)CCC[C@@H](C)[C@H]1CC[C@H]2[C@@H]3CC=C4C[C@@H](O)CC[C@]4(C)[C@H]3CC[C@]12C [27-OHC, 27-hydroxycholesterol]
GSM activity [1]: inactive | Aβ42 EC50 [1, 4]: could not be determined

CC(CCC[C@@H](C)[C@H]1CC[C@H]2[C@@H]3CC=C4CCCC[C@]4(C)[C@H]3CC[C@]12C)C(=O)O (stereo partly drawn) [Cmpd 13, 3-deoxy-CA]
fold less potent than CA 2a (Aβ42 EC50) [1]: approximately 3 fold | EC50 [1, 4]: 0.67 µM

C[C@H](CCC[C@H](C)C(=O)O)[C@H]1CC[C@H]2[C@@H]3CC=C4C[C@@H](O)CC[C@]4(C)[C@H]3CC[C@]12C [Cmpd 2b, 25-(S)-CA]
fold less potent than CA 2a (Aβ42 EC50) [1]: about 2 fold | EC50 [1, 4]: 0.501 µM

O=C(O)[C@H](CC1CCC1)c1cc(Cl)c(OCC(F)(F)F)c(-c2ccc(C(F)(F)F)cc2)c1 [Cmpd 3, (R)-2-(5-chloro-6-(2,2,2-trifluoroethoxy)-4’-(trifluoromethyl)biphenyl-3-yl)-3-cyclobutylpropanoic acid]
EC50 (Aβ42; GSM activity, ref the previous literature): 0.067 µM

CC(CCCC(C)C1CCC2C3C(O)C=C4CC(O)CCC4(C)C3CCC12C)C(=O)O (stereo not drawn) [7α-OH-CA, 7α-hydroxy-cholestenoic acid]
EC50 [1, 5]: 0.97 µM | GSM activity [1]: demonstrated GSM activity

C[C@H](CCCC(=O)O)[C@H]1CC[C@H]2[C@@H]3CC=C4C[C@@H](O)CC[C@]4(C)[C@H]3CC[C@]12C [Cmpd 6]
EC50 [1, 6]: 1.96 µM | EC50 [1, 7]: ~2 µM

C[C@H](CCC(=O)O)[C@H]1CC[C@H]2[C@@H]3CC[C@@H]4CCCC[C@]4(C)[C@H]3CC[C@]12C [Cmpd 1, 5β-Cholanic acid]
EC50 (Aβ42; decreasing Aβ42): ~5.7 µM | EC50 (Aβ42; decreasing Aβ42, listed as 5β-cholanic acid): 5.7 µM

C[C@H](NC(=O)Cc1cc(F)cc(F)c1)C(=O)N[C@H]1N=C(c2ccccc2)c2ccccc2N(C)C1=O [Cmpd E, reference compound]
decrease of total Aβ production (γ-secretase): 77% | decrease of Aβ42 production (γ-secretase; CA at 150 μM): 91% | overall Aβ production [2]: decreased

C[C@H](CCC(=O)O)[C@H]1CC[C@H]2[C@@H]3CC[C@@H]4C[C@H](O)CC[C@]4(C)[C@H]3CC[C@]12C [lithocholic acid]
GSM activity (Aβ42): GSMs

C[C@H](CCCC(=O)O)[C@H]1CC[C@H]2[C@@H]3CC=C4C[C@@H](O[Si](C)(C)C(C)(C)C)CC[C@]4(C)[C@H]3CC[C@]12C [Cmpd 5]
EC50 [1, 6]: 1.78 µM | EC50 [1, 7]: ~2 µM

CC(CCCC(C)C1CCC2C3C(O)CC4=CC(=O)CCC4(C)C3CCC12C)C(=O)O (stereo not drawn) [7α-OH-4-CA, 7α-hydroxy-4-oxo-cholestenoic acid]
EC50 [1, 5]: 4.15 µM | GSM activity [1]: demonstrated GSM activity

C[C@H](CCC(=O)O)[C@H]1CC[C@H]2[C@@H]3[C@@H](O)C[C@@H]4C[C@H](O)CC[C@]4(C)[C@H]3C[C@H](O)[C@]12C [ursocholic acid]
GSM activity (Aβ42): GSMs

CC(C)CC(c1ccc(Cl)cc1)N1CC[C@@H](CC(=O)O)C[C@H]1c1ccc(C(F)(F)F)cc1 (stereo partly drawn) [Cmpd 4, reference compound]
EC50 [1, 5]: 0.092 µM | mAβ38 level ([2]; 1 μM): increased | mAβ42 level ([2]; 1 μM): decreased | brain Aβ levels [3]: expected Aβ modulation
